Results as given in ChEMBL document CHEMBL5674860, “Optimized Dual-Glo Assay to identify co-culture-induced drug vulnerabilities in 3D CRC models” (2024).

How the values were obtained:
Format in all cases: functional, Homo sapiens
Design in all cases: dose or concentration left out as unconfirmed
[1] = tested on: Colon cancer organoid; experiment: Optimized Dual-Glo assay to identify co-culture induced drug vulnerabilities using donated chemical probes and chemogenomics kinase set in O06 CRC organoid and F06 CAF mono and co-culture. […] Cell viability is reported both mono and co-culture models.
[2] = tested on: Colon cancer organoid; experiment: Optimized Dual-Glo assay to identify co-culture induced drug vulnerabilities using donated chemical probes and chemogenomics kinase set in O20 CRC organoid and F20 CAF mono and co-culture. […] Cell viability is reported both mono and co-culture models.
[3] = tested on: Colon cancer organoid; experiment: Optimized Dual-Glo assay to identify co-culture induced drug vulnerabilities using donated chemical probes and chemogenomics kinase set in O14 CRC organoid and F14 CAF mono and co-culture. […] Cell viability is reported both mono and co-culture models.
[4] = Culture type Co-Culture, Transduced with Lucferase2-P2A-EGFP lentivirus
[5] = Culture type Co-Culture, Transduced with Renilla-dsRed lentivirus
[6] = Culture type Mono-Culture, Transduced with Lucferase2-P2A-EGFP lentivirus
[7] = Culture type Mono-Culture, Transduced with Renilla-dsRed lentivirus

Row | Structure (SMILES) | Cell Viability [1, 4] | Cell Viability [1, 5] | Cell Viability [1, 6] | Cell Viability [1, 7] | Cell Viability [2, 4] | Cell Viability [2, 5] | Cell Viability [2, 6] | Cell Viability [2, 7] | Cell Viability [3, 4] | Cell Viability [3, 5] | Cell Viability [3, 6] | Cell Viability [3, 7]
1 | O=C(c1ccc(C(=O)N2CCC(N3CCCC3)CC2)c(Nc2ccccc2)c1)N1CCC(N2CCCC2)CC1 | 108.091% | 96.0319% | 93.2966% | 98.6037% | 128.422% | 96.2949% | 123.486% | 97.1366% | 102.524% | 98.4049% | 104.115% | 98.5481%
2 | CC(C)N(CCCNC(=O)Nc1ccc(C(C)(C)C)cc1)C[C@H]1O[C@@H](n2cc(Br)c3c(N)ncnc32)[C@H](O)[C@@H]1O | 62.4885% | 97.8527% | 76.7332% | 88.3272% | 59.1388% | 110.156% | 82.1777% | 84.781% | 69.7796% | 119.823% | 60.0766% | 78.3641%
3 | CCOC(=O)CCNc1cc(N2CCc3ccccc3CC2)nc(-c2ccccn2)n1 | 103.039% | 116.98% | 128.06% | 112.043% | 100.893% | 127.032% | 66.9069% | 85.0003% | 81.7654% | 97.685% | 98.6348% | 109.679%
4 | O=C(O)CNC(=O)c1c(O)c2ccccc2n(Cc2ccccc2)c1=O | 145.736% | 124.036% | 103.118% | 94.3602% | 96.4355% | 149.859% | 78.6397% | 102.057% | 94.5212% | 101.447% | 96.8462% | 89.4149%
5 | CCCOc1ccn2c(C(C)=O)cc(-c3ccccc3S(C)(=O)=O)c2c1 | 121.922% | 129.269% | 172.982% | 130.382% | 148.391% | 117.742% | 112.445% | 111.137% | 117.77% | 112.498% | 105.54% | 97.3869%
6 | Cc1cc(=O)n(C)c2cc(N3C(=O)CC[C@H](NS(=O)(=O)CC(C)C)[C@H]3c3ccc(Cl)cc3)ccc12 | 117.914% | 167.751% | 110.238% | 116.926% | 107.11% | 166.434% | 116.867% | 106.138% | 75.0892% | 148.008% | 105.721% | 116.483%
7 | CCN(C(=O)CO)[C@H]1CN(/C(=N\C#N)Nc2cccc(OC(F)F)c2)N=C1c1ccc(Cl)c(Cl)c1 | 100.328% | 102.729% | 73.2581% | 127.729% | 98.0443% | 141.776% | 125.834% | 95.5224% | 96.421% | 116.48% | 90.9581% | 97.9735%
8 | Nc1ncnc2c1ccn2[C@@H]1O[C@H]([C@H](O)c2ccccc2)[C@@H](O)[C@H]1O | 22.7938% | 108.338% | 39.3105% | 99.7719% | 28.437% | 179.519% | 41.1766% | 89.3267% | 19.223% | 140.259% | 27.9797% | 80.8035%
9 | COc1cc(N(C)c2ccnc3ccc(C(F)(F)F)cc23)cc(OC)c1OC | 161.309% | 161.036% | 102.201% | 116.943% | 76.7382% | 110.267% | 123.073% | 118.477% | 114.205% | 95.5273% | 120.439% | 84.9016%
10 | CNCCN1CCC(c2cc(CN(C)C(=O)c3cccc(Oc4ccccc4)c3)ccn2)CC1 | 83.6812% | 129.007% | 98.3617% | 135.689% | 67.0647% | 133.473% | 86.7663% | 93.4663% | 99.3221% | 120.381% | 93.8948% | 118.528%
11 | COc1c(C)cc(NC(=O)c2nn(Cc3ccc(F)cc3)c3c2CN(C(=O)c2ccc[nH]2)C[C@]3(C)C(N)=O)cc1C | 66.5012% | 112.674% | 87.4341% | 110.624% | 106.451% | 95.1299% | 138.387% | 102.921% | 89.068% | 129.679% | 87.8638% | 102.007%
12 | Cc1nnc2c3ccccc3c(N[C@@H](C)[C@H](c3ccccc3)N(C)C)nn12 | 95.7989% | 115.114% | 100.296% | 129.772% | 82.0862% | 127.368% | 95.9209% | 100.184% | 89.8317% | 122.44% | 117.177% | 107.176%
13 | C[C@H]1CC(=O)Nc2cc(C(=O)NCCC3CC3)ccc2N1C(=O)N1CC2CC2C1 (stereo partly drawn) | 115.835% | 132.849% | 119.799% | 120.051% | 105.905% | 112.87% | 104.527% | 89.0255% | 72.2289% | 101.41% | 80.5063% | 95.2313%
14 | COc1cc(C(=O)N2CC[C@@H](O)[C@@H](N)C2)cc2nc(-c3cc4ccccc4n3CC3CC3)n(C)c12.Cl | 124.227% | 121.721% | 98.6493% | 122.476% | 98.8385% | 114.018% | 83.2381% | 78.6997% | 132.512% | 122.105% | 79.0484% | 89.8768%
